The results in this text go back to publication PMC6010130, “Inhibition of Leishmania infantum trypanothione reductase by diaryl sulfide derivatives” (Journal of Enzyme Inhibition and Medicinal Chemistry, 2017).

By Ki is commonly meant a dissociation constant, usually derived from enzyme kinetics or from competition with a known ligand.

Assay [1] deals with T1, trypanothione reductase (TR) (Leishmania infantum, UniProt A4HSF7).
T1 construct: gene TRYR
Briefly: X-ray crystal structure ([…] Å). Type of assay: binding.

In assay [2] the target is T1, trypanothione reductase (TR). Briefly: X-ray crystal structure ([…] Å, soaked oxidized TR); Ki from Dixon plot of the purified enzyme (NADPH oxidation at […] nm). The format is biochemical.

Each structure is given as a SMILES string.

T1 sequence (A4HSF7 1-491): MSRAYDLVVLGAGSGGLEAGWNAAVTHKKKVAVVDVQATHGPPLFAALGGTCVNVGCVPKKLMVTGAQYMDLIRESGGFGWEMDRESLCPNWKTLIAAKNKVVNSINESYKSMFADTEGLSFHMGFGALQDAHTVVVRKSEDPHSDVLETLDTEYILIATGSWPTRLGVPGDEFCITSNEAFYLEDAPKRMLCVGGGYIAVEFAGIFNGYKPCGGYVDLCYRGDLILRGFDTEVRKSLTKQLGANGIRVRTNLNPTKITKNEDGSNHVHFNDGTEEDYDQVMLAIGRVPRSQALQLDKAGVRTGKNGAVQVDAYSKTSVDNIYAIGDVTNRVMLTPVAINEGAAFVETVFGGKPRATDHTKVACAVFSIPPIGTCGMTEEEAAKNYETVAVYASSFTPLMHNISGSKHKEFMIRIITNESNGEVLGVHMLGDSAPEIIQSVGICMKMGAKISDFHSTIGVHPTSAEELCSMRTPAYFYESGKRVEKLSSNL

Consider `Cc1cc2nc3c(=O)[nH]c(=O)nc-3n(C[C@H](O)[C@H](O)[C@H](O)COP(=O)(O)OP(=O)(O)OC[C@H]3O[C@@H](n4cnc5c(N)ncnc54)[C@H](O)[C@@H]3O)c2cc1C` [FAD], for which the “X-ray crystal structure (3.5 Å)” value in assay [1] was “Each monomer contains a FAD molecule”.

`CCC(C)Oc1cc(N)nc(Sc2cccc(Cl)c2)n1` (centres unmarked) [RDS 777, 6-(sec-butoxy)-2-((3-chlorophenyl)thio)pyrimidin-4-amine]: the Ki in assay [2] is 250 ± 180 nM.
